Test results reported in PubChem BioAssay AID330 (DTP/NCI, 2004).
“And” between values parts separate entries of the source, which are not always exact repeats. Equal entries are not always repeated. Toxic doses and inconclusive results are not listed.

System: P388 leukemia ip, CD2F1 mice, survival T/C
Assay: NCI In Vivo Anticancer Drug Screen. Data for tumor model P388 Leukemia (intraperitoneal) in CD2F1 (CDF1) mice
Settings: endpoint: median survival time, higher = longer survival
Outline: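 Mice carrying the transplanted tumor received test compound or vehicle. Survival was recorded in each group, and the value is the treated-group measurement divided by that of the vehicle-treated control group.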

[1] = dose: 120.0 mg/kg/injection, schedule: Q01DX005 (ip), vehicle: Klucel (hydroxypropylcellulose) (HPC)
[2] = dose: 50.0 mg/kg/injection, schedule: Q01DX005 (ip), vehicle: saline
[3] = dose: 100.0 mg/kg/injection, schedule: Q01DX005 (ip), vehicle: saline
[4] = dose: 200.0 mg/kg/injection, schedule: Q01DX005 (ip), vehicle: saline
[5] = dose: 25.0 mg/kg/injection, schedule: Q01DX009 (ip), vehicle: other
[6] = dose: 50.0 mg/kg/injection, schedule: Q01DX009 (ip), vehicle: other
[7] = dose: 100.0 mg/kg/injection, schedule: Q01DX009 (ip), vehicle: other
[8] = dose: 200.0 mg/kg/injection, schedule: Q01DX009 (ip), vehicle: other
[9] = dose: 25.0 mg/kg/injection, schedule: Q01DX009 (ip), vehicle: saline with Tween-80
[10] = dose: 50.0 mg/kg/injection, schedule: Q01DX009 (ip), vehicle: saline with Tween-80
[11] = dose: 100.0 mg/kg/injection, schedule: Q01DX009 (ip), vehicle: saline with Tween-80
[12] = dose: 50.0 mg/kg/injection, schedule: Q01DX009 (ip), vehicle: Klucel (hydroxypropylcellulose) (HPC)
[13] = dose: 100.0 mg/kg/injection, schedule: Q01DX009 (ip), vehicle: Klucel (hydroxypropylcellulose) (HPC)
[14] = dose: 60.0 mg/kg/injection, schedule: Q01DX005 (ip), vehicle: Klucel (hydroxypropylcellulose) (HPC)
[15] = dose: 6.25 mg/kg/injection, schedule: Q01DX005 (ip), vehicle: saline with Tween-80
[16] = dose: 12.5 mg/kg/injection, schedule: Q01DX005 (ip), vehicle: saline with Tween-80
[17] = dose: 12.5 mg/kg/injection, schedule: Q01DX009 (ip), vehicle: other

## COc1ccc(-c2cc(=O)c3cc(C)c(C)c(C#N)c3o2)cc1
dose: 3.75 mg/kg/injection, schedule: Q01DX005 (ip), vehicle: Klucel (hydroxypropylcellulose) (HPC)
  T/C: 120 % of control
dose: 7.5 mg/kg/injection, schedule: Q01DX005 (ip), vehicle: Klucel (hydroxypropylcellulose) (HPC)
  T/C: 93 % of control
dose: 15.0 mg/kg/injection, schedule: Q01DX005 (ip), vehicle: Klucel (hydroxypropylcellulose) (HPC)
  T/C: 109 % of control
[1]
  T/C: 86 % of control

## CN(C)P1(=O)NCC(C)(C)CO1 (centres undefined)
[2]
  T/C: 104 % of control
[3]
  T/C: 96 % of control
[4]
  T/C: 96 % of control

## Nc1ccc(C(OC(=O)c2cc3ccccc3c(Cc3c(O)c(C(=O)OC(c4ccc(N)cc4)(c4ccc(N)cc4)c4ccc(N)cc4)cc4ccccc34)c2O)(c2ccc(N)cc2)c2ccc(N)cc2)cc1
dose: 6.25 mg/kg/injection, schedule: Q01DX009 (ip), vehicle: saline with Tween-80
  T/C: 117 % of control

## Nc1cc2c(cc1C(=O)N1CCc3ccccc31)OCO2
[5]
  T/C: 106 % of control
[6]
  T/C: 100 % of control
[7]
  T/C: 97 % of control
[8]
  T/C: 90 % of control

## COC(=O)/C(C#N)=C(/SC)N(C)C
dose: 12.5 mg/kg/injection, schedule: Q01DX009 (ip), vehicle: saline with Tween-80
  T/C: 104 % of control
[9]
  T/C: 104 % of control
[10]
  T/C: 102 % of control and 109 % of control
[11]
  T/C: 103 % of control

## Cc1ccc(S(=O)(=O)N/N=C2/C=CC3(CC=CCC3)CC2)cc1 (centres undefined)
[12]
  T/C: 109 % of control
[13]
  T/C: 100 % of control
dose: 200.0 mg/kg/injection, schedule: Q01DX009 (ip), vehicle: Klucel (hydroxypropylcellulose) (HPC)
  T/C: 100 % of control

## CC(C)C12C=CC(C)(CC1)OO2 (centres undefined)
[9]
  T/C: 104 % of control
[10]
  T/C: 100 % of control and 102 % of control

## C[C@@H]1C(=O)O[C@H]2[C@H]1CC[C@@]1(C)C[C@@H](I)C(=O)[C@@H](C)[C@H]21
[14]
  T/C: 92 % of control
[1]
  T/C: 108 % of control

## N#Cc1c(-c2ccccc2)c(C#N)c(=O)n(N)c1N
dose: 50.0 mg/kg/injection, schedule: Q01DX005 (ip), vehicle: Klucel (hydroxypropylcellulose) (HPC)
  T/C: 91 % of control and 93 % of control
dose: 100.0 mg/kg/injection, schedule: Q01DX005 (ip), vehicle: Klucel (hydroxypropylcellulose) (HPC)
  T/C: 86 % of control
dose: 200.0 mg/kg/injection, schedule: Q01DX005 (ip), vehicle: Klucel (hydroxypropylcellulose) (HPC)
  T/C: 86 % of control

## COc1ccc(C2c3cc4c(cc3OC(O)C2C)OCO4)cc1 (centres undefined)
[14]
  T/C: 106 % of control
[1]
  T/C: 100 % of control
dose: 240.0 mg/kg/injection, schedule: Q01DX005 (ip), vehicle: Klucel (hydroxypropylcellulose) (HPC)
  T/C: 101 % of control

## CCCCCC(=O)C(=O)c1ccc(O)c(C)c1O
[12]
  T/C: 95 % of control
[13]
  T/C: 89 % of control

## On1cc/c(=N\N=C\c2ccc(N(CCCl)CCCl)cc2)c2ccccc21
dose: 100.0 mg/kg/injection, schedule: Q04DX003 (ip), vehicle: saline + Tween-80 + alcohol
  T/C: 99 % of control
dose: 200.0 mg/kg/injection, schedule: Q04DX003 (ip), vehicle: saline + Tween-80 + alcohol
  T/C: 106 % of control
dose: 400.0 mg/kg/injection, schedule: Q04DX003 (ip), vehicle: saline + Tween-80 + alcohol
  T/C: 102 % of control

## N=C(N)c1ccc2oc(/C=C/c3cc4ccc(C(=N)N)cc4o3)cc2c1
dose: 400.0 mg/kg/injection, schedule: Q04DX003 (ip), vehicle: suspension in saline
  T/C: 150 % of control

## CC1(C)CCC(C2=CC(=O)c3c(O)ccc(O)c3C2=O)O1 (centres undefined)
dose: 3.12 mg/kg/injection, schedule: Q01DX005 (ip), vehicle: saline with Tween-80
  T/C: 103 % of control
[15]
  T/C: 108 % of control
[16]
  T/C: 99 % of control

## Oc1c(C(c2ccccc2)N2CCCCC2)ccc2ccccc12 (centres undefined)
[10]
  T/C: 110 % of control
[11]
  T/C: 105 % of control
dose: 200.0 mg/kg/injection, schedule: Q01DX009 (ip), vehicle: saline with Tween-80
  T/C: 90 % of control

## c1cc2c(c(NC3=NCCCO3)c1)CCCC2
dose: 12.5 mg/kg/injection, schedule: Q04DX003 (ip), vehicle: saline with Tween-80
  T/C: 108 % of control
dose: 25.0 mg/kg/injection, schedule: Q04DX003 (ip), vehicle: saline with Tween-80
  T/C: 108 % of control
dose: 50.0 mg/kg/injection, schedule: Q04DX003 (ip), vehicle: saline with Tween-80
  T/C: 100 % of control

## O=C(O)C1CCCCC12OCCO2 (centres undefined)
dose: 100.0 mg/kg/injection, schedule: Q04DX002 (ip), vehicle: saline
  T/C: 102 % of control
dose: 200.0 mg/kg/injection, schedule: Q04DX002 (ip), vehicle: saline
  T/C: 106 % of control
dose: 400.0 mg/kg/injection, schedule: Q04DX002 (ip), vehicle: saline
  T/C: 98 % of control

## COC(=O)CC1c2ccc3cc(OC)ccc3c2CCC1(C)C(=O)OC (centres undefined)
dose: 50.0 mg/kg/injection, schedule: Q01DX005 (ip), vehicle: saline with Tween-80
  T/C: 103 % of control
dose: 100.0 mg/kg/injection, schedule: Q01DX005 (ip), vehicle: saline with Tween-80
  T/C: 96 % of control
dose: 200.0 mg/kg/injection, schedule: Q01DX005 (ip), vehicle: saline with Tween-80
  T/C: 98 % of control

## CCOc1cc2c(cc1C(C)c1ccc(OC)cc1)OCO2 (centres undefined)
dose: 25.0 mg/kg/injection, schedule: Q01DX005 (ip), vehicle: distilled water + alcohol
  T/C: 96 % of control
dose: 50.0 mg/kg/injection, schedule: Q01DX005 (ip), vehicle: distilled water + alcohol
  T/C: 100 % of control and 119 % of control
dose: 100.0 mg/kg/injection, schedule: Q01DX005 (ip), vehicle: distilled water + alcohol
  T/C: 123 % of control
dose: 200.0 mg/kg/injection, schedule: Q01DX005 (ip), vehicle: distilled water + alcohol
  T/C: 92 % of control

## CC1=C(CC/C(C)=C/CC[C@@]2(C)CC[C@H](C(C)C(=O)O)OO2)C(C)(C)CCC1 (some centres undefined)
dose: 4.38 mg/kg/injection, schedule: Q01DX005 (ip), vehicle: saline + Tween-80 + alcohol
  T/C: 97 % of control
dose: 8.75 mg/kg/injection, schedule: Q01DX005 (ip), vehicle: saline + Tween-80 + alcohol
  T/C: 102 % of control
dose: 17.5 mg/kg/injection, schedule: Q01DX005 (ip), vehicle: saline + Tween-80 + alcohol
  T/C: 94 % of control
dose: 35.0 mg/kg/injection, schedule: Q01DX005 (ip), vehicle: saline + Tween-80 + alcohol
  T/C: 94 % of control

## COc1ccc(C2=NCC2(Cl)Cl)cc1
[17]
  T/C: 97 % of control
[5]
  T/C: 95 % of control
[6]
  T/C: 105 % of control
[7]
  T/C: 96 % of control
[8]
  T/C: 99 % of control

## Cc1cc(N2CCOCC2)nc(N2CCOCC2)c1C#N
[15]
  T/C: 100 % of control
[16]
  T/C: 108 % of control
dose: 25.0 mg/kg/injection, schedule: Q01DX005 (ip), vehicle: saline with Tween-80
  T/C: 99 % of control

## OCCC(N1CCOCC1)C(O)(c1ccccc1)c1ccccc1 (centres undefined)
dose: 60.0 mg/kg/injection, schedule: Q01DX005 (ip), vehicle: saline with Tween-80
  T/C: 93 % of control
dose: 120.0 mg/kg/injection, schedule: Q01DX005 (ip), vehicle: saline with Tween-80
  T/C: 93 % of control
dose: 240.0 mg/kg/injection, schedule: Q01DX005 (ip), vehicle: saline with Tween-80
  T/C: 97 % of control

## C=CCC(C(C)=O)C(=O)OC (centres undefined)
[2]
  T/C: 90 % of control
[3]
  T/C: 104 % of control
[4]
  T/C: 100 % of control

## COc1ccc(/C(C#N)=C\c2ccnc3ccccc23)c(OC)c1
[17]
  T/C: 87 % of control
[5]
  T/C: 91 % of control
[6]
  T/C: 87 % of control
[7]
  T/C: 87 % of control
[8]
  T/C: 87 % of control

## O=C(NCCN1CCOCC1)Nc1ccc2c(c1)OCCOCCOCCOCCO2
dose: 60.0 mg/kg/injection, schedule: Q01DX005 (ip), vehicle: saline
  T/C: 105 % of control
dose: 120.0 mg/kg/injection, schedule: Q01DX005 (ip), vehicle: saline
  T/C: 102 % of control
dose: 240.0 mg/kg/injection, schedule: Q01DX005 (ip), vehicle: saline
  T/C: 99 % of control

## COc1cc2c(cc1OC)C(CC1CCN3CCCCC3C1)NCC2 (centres undefined)
dose: 87.5 mg/kg/injection, schedule: Q04DX003 (ip), vehicle: saline
  T/C: 103 % of control

## Cn1c(=O)c2c(ncn2C2C(=O)NNC2=O)n(C)c1=O
dose: 100.0 mg/kg/injection, schedule: Q01DX001 (ip), vehicle: Klucel (hydroxypropylcellulose) (HPC)
  T/C: 100 % of control
dose: 200.0 mg/kg/injection, schedule: Q01DX001 (ip), vehicle: Klucel (hydroxypropylcellulose) (HPC)
  T/C: 93 % of control
dose: 400.0 mg/kg/injection, schedule: Q01DX001 (ip), vehicle: Klucel (hydroxypropylcellulose) (HPC)
  T/C: 94 % of control
